We go through 15 molecules from patent publication US20240190880A1 (THE REGENTS OF THE UNIVERSITY OF MICHIGAN, priority 2021, published 2024).

One experiment has as its target T1, ER (Homo sapiens, UniProt P03372).
T1 construct: host or cells: T47D and MCF7 human breast cancer cells
T1 sequence (P03372 1-595): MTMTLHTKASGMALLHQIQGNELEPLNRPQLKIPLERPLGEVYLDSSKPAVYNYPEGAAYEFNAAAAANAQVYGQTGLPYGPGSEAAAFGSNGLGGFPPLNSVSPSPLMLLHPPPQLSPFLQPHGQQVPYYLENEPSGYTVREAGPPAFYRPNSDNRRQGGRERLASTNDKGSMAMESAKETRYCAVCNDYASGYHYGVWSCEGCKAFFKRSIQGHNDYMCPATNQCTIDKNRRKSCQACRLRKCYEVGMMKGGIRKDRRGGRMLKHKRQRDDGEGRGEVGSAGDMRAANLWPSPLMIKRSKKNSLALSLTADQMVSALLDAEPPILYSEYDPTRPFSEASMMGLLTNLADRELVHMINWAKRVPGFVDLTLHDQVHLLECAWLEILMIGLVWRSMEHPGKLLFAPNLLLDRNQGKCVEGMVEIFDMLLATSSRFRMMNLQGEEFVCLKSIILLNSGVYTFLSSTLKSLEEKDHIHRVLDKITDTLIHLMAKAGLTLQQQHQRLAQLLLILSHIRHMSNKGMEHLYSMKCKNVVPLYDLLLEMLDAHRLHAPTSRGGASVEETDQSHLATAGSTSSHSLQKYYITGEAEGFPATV
In words: ER degradation activity, in-cell western blot analysis in T47D cells. In kind it is cell-based. The following applies: 16 hours, Table A does not say which cell line (T47D or MCF7), read-out: Potency (DC50). The gist of the method: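 ER protein remaining after 16 h compound exposure is quantified in T47D cells by in-cell western, with a no-primary-antibody background control. Values are percentages of DMSO-treated signal.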
Turning to `C[C@@H]1Cc2c([nH]c3ccccc23)[C@@H](c2c(F)cc(N3CCC4(CC3)CC(C(=O)N3CCC(CN5Cc6cc7c(cc6C5)C(=O)N(C5CCC(=O)NC5=O)C7=O)CC3)C4)cc2F)N1CC(F)F` (stereo partly drawn) [E 99, 6-((1-(7-(4-((1R,3R)-2-(2,2-difluoroethyl)-3-methyl-2,3,4,9-tetrahydro-1H-pyrido[3,4-b]indol-1-yl)-3,5-difluorophenyl)-7-azaspiro[3.5]nonane-2-carbonyl)piperidin-4-yl)methyl)-2-(2,6-dioxopiperidin-3-yl)-6,7-dihydropyrrolo[3,4-f]isoindole-1,3(2H,5H)-dione], the half-maximal degradation concentration (DC50) (in general, the midpoint of the concentration-degradation curve) lay within 10 to 100 nM.

Take `C[C@@H]1Cc2c([nH]c3ccccc23)[C@@H](c2c(F)cc(N3CC(F)(C(=O)N4CCC(CN5Cc6cc7c(cc6C5)C(=O)N(C5CCC(=O)NC5=O)C7=O)CC4)C3)cc2F)N1CC(F)F` (stereo partly drawn) [E 209, 6-((1-(1-(4-((1R,3R)-2-(2,2-difluoroethyl)-3-methyl-2,3,4,9-tetrahydro-1H-pyrido[3,4-b]indol-1-yl)-3,5-difluorophenyl)-3-fluoroazetidine-3-carbonyl)piperidin-4-yl)methyl)-2-(2,6-dioxopiperidin-3-yl)-6,7-dihydropyrrolo[3,4-f]isoindole-1,3(2H,5H)-dione]: the DC50 lay in the range of 10 to 100 nM. As to `C[C@@H]1Cc2cc(O)ccc2[C@@H](c2c(F)cc(N3CCC4(CN(C(=O)CN5Cc6cc7c(cc6C5)C(=O)N(C5CCC(=O)NC5=O)C7=O)C4)C3)cc2F)N1CC(F)F` (stereo partly drawn) [E 44, 6-(2-(6-(4-((1S,3R)-2-(2,2-difluoroethyl)-6-hydroxy-3-methyl-1,2,3,4-tetrahydroisoquinolin-1-yl)-3,5-difluorophenyl)-2,6-diazaspiro[3.4]octan-2-yl)-2-oxoethyl)-2-(2,6-dioxopiperidin-3-yl)-6,7-dihydropyrrolo[3,4-f]isoindole-1,3(2H,5H)-dione], the DC50 was 10 to 100 nM. `C[C@@H]1Cc2c([nH]c3ccccc23)[C@@H](c2c(F)cc(N3CCC4(CN(C(=O)CN5Cc6cc7c(cc6C5)C(=O)N(C5CCC(=O)NC5=O)C7)C4)C3)cc2F)N1CC(F)F` (stereo partly drawn) [E 72, 3-(6-(2-(6-(4-((1R,3R)-2-(2,2-difluoroethyl)-3-methyl-2,3,4,9-tetrahydro-1H-pyrido[3,4-b]indol-1-yl)-3,5-difluorophenyl)-2,6-diazaspiro[3.4]octan-2-yl)-2-oxoethyl)-1-oxo-3,5,6,7-tetrahydropyrrolo[3,4-f]isoindol-2(1H)-yl)piperidine-2,6-dione]: the half-maximal degradation concentration (DC50) was under 10 nM. Take `C[C@@H]1Cc2c([nH]c3ccccc23)[C@@H](c2c(F)cc(N3CCC(N4CCC(N5Cc6cc7c(cc6C5)C(=O)N(C5CCC(=O)NC5=O)C7=O)CC4)CC3)cc2F)N1CC(F)F` (stereo partly drawn) [E 87, 6-(1′-(4-((1R,3R)-2-(2,2-difluoroethyl)-3-methyl-2,3,4,9-tetrahydro-1H-pyrido[3-4-b]indol-1-yl)-3,5-difluorophenyl)-[1,4′-bipiperidin]-4-yl)-2-(2,6-dioxopiperidin-3-yl)-6,7-dihydropyrrolo[3,4-f]isoindole-1,3(2H,5H)-dione]: the DC50 is over 100 nM. For `O=C1CCC(N2C(=O)c3cc4c(cc3C2=O)CN(CC(=O)N2CCC3(CC2)CCN(c2ccc([C@@H]5c6ccc(O)cc6CC[C@@H]5C5CCC(F)(F)CC5)cc2)CC3)C4)C(=O)N1` (mixture of isomers) [E 178, Rac-6-(2-(9-(4-((1R,2R)-2-(4,4-difluorocyclohexyl)-6-hydroxy-1,2,3,4-tetrahydronaphthalen-1-yl)phenyl)-3,9-diazaspiro[5.5]undecan-3-yl)-2-oxoethyl)-2-(2,6-dioxopiperidin-3-yl)-6,7-dihydropyrrolo[3,4-f]isoindole-1,3(2H,5H)-dione], the half-maximal degradation concentration (DC50) was in the range of 10 to 100 nM. For `C[C@@H]1Cc2cc(O)ccc2[C@@H](c2c(F)cc(N3CC4(CCN(CC(=O)N5Cc6cc7c(cc6C5)C(=O)N(C5CCC(=O)NC5=O)C7)C4)C3)cc2F)N1CC(F)F` (stereo partly drawn) [E 40, 3-(6-(2-(2-(4-((1S,3R)-2-(2,2-difluoroethyl)-6-hydroxy-3-methyl-1,2,3,4-tetrahydroisoquinolin-1-yl)-3,5-difluorophenyl)-2,6-diazaspiro[3.4]octan-6-yl)acetyl)-1-oxo-3,5,6,7-tetrahydropyrrolo[3,4-f]isoindol-2(1H)-yl)piperidine-2,6-dione], the DC50 was under 10 nM.

`C[C@@H]1Cc2c([nH]c3ccccc23)[C@@H](c2c(F)cc(N3CCCC(CN4CCC(N5Cc6cc7c(cc6C5)C(=O)N(C5CCC(=O)NC5=O)C7=O)CC4)C3)cc2F)N1CC(F)F` (stereo partly drawn) [E 59, 6-(1-((1-(4-((1R,3R)-2-(2,2-difluoroethyl)-3-methyl-2,3,4,9-tetrahydro-1H-pyrido[3,4-b]indol-1-yl)-3,5-difluorophenyl)piperidin-3-yl)methyl)piperidin-4-yl)-2-(2,6-dioxopiperidin-3-yl)-6,7-dihydropyrrolo[3,4-f]isoindole-1,3(2H,5H)-dione]: the half-maximal degradation concentration (DC50) was 10 to 100 nM. Still for that read-out and setting: in the case of `O=C1CCC(N2C(=O)c3cc4c(cc3C2=O)CN(CC(=O)N2CCC3(CC2)CC(Oc2ccc([C@@H]5c6ccc(O)cc6CC[C@@H]5c5ccccc5)cc2)C3)C4)C(=O)N1` (stereo partly drawn) [E 220, 2-(2,6-dioxopiperidin-3-yl)-6-(2-(2-(4-((1R,2S)-6-hydroxy-2-phenyl-1,2,3,4-tetrahydronaphthalen-1-yl)phenoxy)-7-azaspiro[3.5]nonan-7-yl)-2-oxoethyl)-6,7-dihydropyrrolo[3,4-f]isoindole-1,3(2H,5H)-dione] it was over 100 nM.

Take `CCC(=C(c1ccc(O)cc1)c1ccc(N2CCC3(CC2)CN(C(=O)CN2CCc4cc5c(cc4C2)C(=O)N(C2CCC(=O)NC2=O)C5=O)C3)cc1)c1ccccc1` (stereo not drawn) [E 194, 2-(2,6-dioxopiperidin-3-yl)-6-(2-(7-(4-(1-(4-hydroxyphenyl)-2-phenylbut-1-en-1-yl)phenyl)-2,7-diazaspiro[3.5]nonan-2-yl)-2-oxoethyl)-5,6,7,8-tetrahydro-1H-pyrrolo[3,4-g]isoquinoline-1,3(2H)-dione]: the 50% degradation concentration (DC50) lay in the range of 10 to 100 nM. As for `C[C@@H]1Cc2c([nH]c3ccccc23)[C@@H](c2c(F)cc(N3CCCC4(CN(C(=O)CN5Cc6cc7c(cc6C5)C(=O)N(C5CCC(=O)NC5=O)C7)C4)C3)cc2F)N1CC(F)F` (stereo partly drawn) [E 70, 3-(6-(2-(6-(4-((1R,3R)-2-(2,2-difluoroethyl)-3-methyl-2,3,4,9-tetrahydro-1H-pyrido[3,4-b]indol-1-yl)-3,5-difluorophenyl)-2,6-diazaspiro[3.5]nonan-2-yl)-2-oxoethyl)-1-oxo-3,5,6,7-tetrahydropyrrolo[3,4-f]isoindol-2(1H)-yl)piperidine-2,6-dione], the DC50 is 10 to 100 nM. Turning to `CN(c1ccc([C@H]2c3ccc(O)cc3CC[C@H]2c2ccccc2)cc1)C1CN([C@H]2CC[C@H](C(=O)N3Cc4cc5c(cc4C3)C(=O)N(C3CCC(=O)NC3=O)C5=O)CC2)C1` (stereo partly drawn) [E 394, 2-(2,6-dioxopiperidin-3-yl)-6-((1S,4r)-4-(3-((4-((1S,2R)-6-hydroxy-2-phenyl-1,2,3,4-tetrahydronaphthalen-1-yl)phenyl)(methyl)amino)azetidin-1-yl)cyclohexane-1-carbonyl)-6,7-dihydropyrrolo[3,4-f]isoindole-1,3(2H,5H)-dione], the 50% degradation concentration (DC50) was over 100 nM.

The same experiment, now with this note: compounds 16 hours, Table A does not say whether T47D or MCF7, read-out: Potency (DC50).
For `COc1cc([C@H]2CC[C@@H](C(=O)N3CCC(N4Cc5cc6c(cc5C4)C(=O)N(C4CCC(=O)NC4=O)C6=O)CC3)CC2)ncc1[C@@H]1c2[nH]c3ccccc3c2C[C@@H](C)N1CC(F)F` (stereo partly drawn) [E 396, 6-(1-((1S,4s)-4-(5-((1R,3R)-2-(2,2-difluoroethyl)-3-methyl-2,3,4,9-tetrahydro-1H-pyrido[3,4-b]indol-1-yl)-4-methoxypyridin-2-yl)cyclohexane-1-carbonyl)piperidin-4-yl)-2-(2,6-dioxopiperidin-3-yl)-6,7-dihydropyrrolo[3,4-f]isoindole-1,3(2H,5H)-dione], the DC50 was over 100 nM. `O=C1CCC(N2C(=O)c3cc4c(cc3C2=O)CC2(C4)CN(C(=O)CN3CC(Oc4ccc([C@@H]5c6ccc(O)cc6CC[C@@H]5c5ccccc5)cc4)C3)C2)C(=O)N1` (stereo partly drawn) [E 502, 2′-(2,6-dioxopiperidin-3-yl)-1-(2-(3-(4-((1R,2S)-6-hydroxy-2-phenyl-1,2,3,4-tetrahydronaphthalen-1-yl)phenoxy)azetidin-1-yl)acetyl)-5′,7′-dihydro-1′H-spiro[azetidine-3,6′-cyclopenta[f]isoindole]-1′,3′(2′H)-dione]: the DC50 is over 100 nM.

On to `C[C@@H]1Cc2c([nH]c3ccccc23)[C@@H](c2cnc(N3CCC4(CC3)CC(CN3Cc5cc6c(cc5C3)C(=O)N(C3CCC(=O)NC3=O)C6=O)C4)nc2)N1CC(C)(C)F` (stereo partly drawn) [E 473, 2-(2,6-dioxopiperidin-3-yl)-6-((7-(5-((1R,3R)-2-(2-fluoro-2-methylpropyl)-3-methyl-2,3,4,9-tetrahydro-1H-pyrido[3,4-b]indol-1-yl)pyrimidin-2-yl)-7-azaspiro[3.5]nonan-2-yl)methyl)-6,7-dihydropyrrolo[3,4-f]isoindole-1,3(2H,5H)-dione], for which the DC50 was in the range of 10 to 100 nM.
